Results: ChEMBL document CHEMBL3414535, “Identification and optimization of Escherichia coli GlmU inhibitors: an in silico approach with validation thereof” (Eur J Med Chem, 2015)

target: Bifunctional protein GlmU (Escherichia coli (strain K12), UniProt P0ACC7); assay: Inhibition of Escherichia coli GlmU acetyltransferase activity assessed as coenzyme A production using acetyl CoA substrate
Sequence (P0ACC7 whole entry): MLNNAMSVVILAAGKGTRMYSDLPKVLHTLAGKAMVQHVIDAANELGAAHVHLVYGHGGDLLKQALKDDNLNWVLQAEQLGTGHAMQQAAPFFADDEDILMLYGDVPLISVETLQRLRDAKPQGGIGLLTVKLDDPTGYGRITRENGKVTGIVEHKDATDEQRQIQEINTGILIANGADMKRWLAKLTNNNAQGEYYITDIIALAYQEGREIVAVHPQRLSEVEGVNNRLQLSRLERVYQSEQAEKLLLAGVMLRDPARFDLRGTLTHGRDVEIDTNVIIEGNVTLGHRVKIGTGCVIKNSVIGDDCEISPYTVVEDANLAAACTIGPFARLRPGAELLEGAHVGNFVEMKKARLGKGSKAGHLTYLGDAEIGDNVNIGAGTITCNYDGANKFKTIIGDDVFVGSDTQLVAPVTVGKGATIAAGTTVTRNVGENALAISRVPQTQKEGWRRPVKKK

| IC50 [nM] | Compound |
| --- | --- |
| 400 | COc1cc(OC)c(S(=O)(=O)NCc2ccccc2N2CCC(CC(=O)O)CC2)cc1NC(=O)CCC(=O)O |
| 2000 | COc1cc(OC)c(S(=O)(=O)N(c2ccccc2)C(C)C)cc1NC(C)=O |
| 800 | COc1cc(OC)c(S(=O)(=O)N2c3ccccc3CC[C@@H]2C)cc1NC(=O)Cc1ccnc(F)c1 |
| 500 | COc1cc(OC)c(S(=O)(=O)N2c3ccccc3CC[C@@H]2C)cc1NC(=O)/C=C/C(=O)O |
| 200 | COc1cc(OC)c(S(=O)(=O)N2c3ccccc3CC[C@@H]2C)cc1NC(=O)COCC(=O)O |
| 60 | COc1cc(OC)c(S(=O)(=O)N2c3ccccc3Oc3ccccc32)cc1NC(=O)Cc1ccncc1 |
| 17000 | COc1cc(OC)c(S(=O)(=O)Nc2cccc(C)c2)cc1NC(C)=O |
| 3000 | COc1cc(OC)c(S(=O)(=O)N(C)c2ccccc2)cc1NC(C)=O |
| 430 | COc1cc(OC)c(S(=O)(=O)N2c3ccccc3CC[C@@H]2C)cc1NC(=O)CCc1nn[nH]n1 |
| 200000 | COc1cc(OC)c(S(=O)(=O)NCc2ccc3c(c2)OCO3)cc1NC(C)=O |
